The test deals with normal, 18 h fasting, glucose loaded & streptozotocin induced hyperglycaemic rats. Nature of the test: hypoglycaemic activity (blood sugar) in rats after oral dosing. The class given is in vivo. Here is the method: 1 kg of A. roseum (whole plant) is shade dried and powdered. The powdered plant material was extracted with ethyl alcohol (5 litres) for 20 hours. The alcohol extract was vacuum dried. The yield was 91 gms. The dried alcoholic extract was macerated successively with hexane and chloroform to give 8.2 gms. and 39.3 gms. of the extracts respectively. A flavonoid glycoside (230 mgs) was isolated from the chloroform extract by repeated column chromatography over silica gel of mesh size 60-120 micron. […] The onset of effect within ½ h and the effect lasted for more than five hours. The fall of blood sugar recorded with above dose was 26 mg/dl (n=24) as compared to fall of 17 & 23 mg/dl recorded with tolbutamide, 50 mg/kg p.o. (n=9) and glipizide, 0.5 mg/kg p.o. (n=8) respectively in 18 h fasting rats.

With `Cc1cnc(C(=O)NCCc2ccc(S(=O)(=O)NC(=O)NC3CCCCC3)cc2)cn1` [glipizide], the “fall of blood sugar” value (0.5 mg/kg p.o., 18 h fasting rats (n=8)) was 23 mg/dL.
Turning to `CCCCNC(=O)NS(=O)(=O)c1ccc(C)cc1` [tolbutamide], the “fall of blood sugar” value (50 mg/kg p.o., 18 h fasting rats (n=9)) was determined as 17 mg/dL.

The values above are taken from patent US6869625B2, “Method of treating diabetes using plant argyrolobium roseum extract, and a process for the isolation of extract from the said plant” (Council of Scientific and Industrial Research, priority 2001, dated 2005).
